Test results taken from article PMC3558798 (British Journal of Clinical Pharmacology, 2012).
Read-outs that look alike come from different tables or passages of the source.

What was measured:
[1] = high calorie, high fat breakfast; cited from earlier work
[2] = cited from earlier work
[3] = system: activated partial thromboplastin time (aPTT); experiment: Food effect study: aPTT; type: in vivo, human; conditions: 3 h after 10 mg oral tablet
[4] = clinical; conditions: human, plasma, oral, 10 mg; for AUC(0-t): AUC(0,t) Adjusted geometric mean; for AUC(0-inf): AUC(0,∞) Adjusted geometric mean; for Cmax: Cmax Adjusted geometric mean
[5] = system: prothrombin time (PT); experiment: Food effect study: PT; type: in vivo, human; conditions: 3 h after 10 mg oral tablet
[6] = 10 mg, high fat, high calorie meal vs fasted
[7] = Single ascending-dose study: template bleeding time; type: in vivo, human; conditions: between pre-dose and 3.5 h post-dose
[8] = system: modified prothrombin time (mPT); experiment: Single ascending-dose study: modified prothrombin time; type: in vivo, human
[9] = Food effect study: safety assessments; type: in vivo, human
[10] = system: thromboembolic events; conditions: patients who had received total knee or hip replacement surgery; cited from earlier work
[11] = oral; cited from earlier work
[12] = system: venous thrombosis; conditions: at doses that preserved haemostasis; cited from earlier work
[13] = system: international normalized ratio (INR); experiment: Food effect study: INR; type: in vivo, human; conditions: for INR Mean (SD) change from baseline: 3 h after 10 mg oral tablet
[14] = system: international normalized ratio (INR); experiment: Single ascending-dose study: INR; type: in vivo, human; conditions: for mean maximum INR: 0–24 h post-dose
[15] = system: activated partial thromboplastin time (aPTT); experiment: Single ascending-dose study: aPTT; type: in vivo, human
[16] = Single ascending-dose study: safety assessments; type: in vivo, human
[17] = clinical; conditions: human, plasma; for half-life: oral; for AUC(0-inf) / AUC(0-t) / Cmax / Tmax: po; for Tmax: Median tmax, range over doses
[18] = single 10 mg dose following standard high calorie, high fat meal
[19] = single 20 mg dose following a similar meal

For `[H]/N=C(/N)c1ccc(NCc2nc3cc(C(=O)N(CCC(=O)O)c4ccccn4)ccc3n2C)cc1` [dabigatran], the “effect of food on extent of absorption” value [1] is listed as “did not affect the extent of absorption”.

In the case of `O=C(NC[C@H]1CN(c2ccc(N3CCOCC3=O)cc2)C(=O)O1)c1ccc(Cl)s1` [rivaroxaban], the “increase in AUC(0,∞) with food” value [2, 18] is given as 28%, the “increase in Cmax with food” value [2, 18] is given as 41% and the “increase in AUC(0,∞) with food” value [2, 19] is given as 23%. For the same molecule, the “increase in Cmax with food” value [2, 19] was 74%.

In the case of `COc1ccc(-n2nc(C(N)=O)c3c2C(=O)N(c2ccc(N4CCCCC4=O)cc2)CC3)cc1` [apixaban, 1-(4-methoxyphenyl)-7-oxo-6-(4-(2-oxopiperidin-1-yl)phenyl)-4,5,6,7-tetrahydro-1H -pyrazolo[3,4-c]pyridine-3-carboxamide], the “aPTT Mean (SD)” value ([3]; fasted, n = 23) is reported as 32.96 (3.59), the “aPTT Mean (SD) change from baseline” value ([3]; fasted, n = 23) is reported as 3.05 (2.59) and the “aPTT Mean (SD)” value ([3]; fed, n = 22) is reported as 31.55 (3.02). The “aPTT Mean (SD) change from baseline” value ([3]; fed, n = 22) was 2.90 (2.21), the AUC(0-t) ([4]; 10 mg fasted) was 1730 ng·h/mL and the AUC(0-t) ([4]; 10 mg fed) was 1810 ng·h/mL. It also gave an AUC(0-inf) ([4]; 10 mg fasted) of 1790 ng·h/mL, an AUC(0-inf) ([4]; 10 mg fed) of 1870 ng·h/mL and a Cmax ([4]; 10 mg fasted) of 151 ng/mL. For the same molecule, the Cmax ([4]; 10 mg fed) was 165 ng/mL, the half-life ([4]; half-life, food effect study) was roughly 11.5 h and the “PT Mean (SD)” value ([5]; fasted, n = 23) was 14.99 (1.24). For the same molecule, the “PT Mean (SD) change from baseline” value ([5]; fasted, n = 23) was 1.39 (0.89), the “PT Mean (SD)” value ([5]; fed, n = 22) was 14.66 (0.97) and the “PT Mean (SD) change from baseline” value ([5]; fed, n = 22) was 1.30 (0.85). For the same molecule, the “increase in median tmax with food” value [6] was 1 h, the “change in template bleeding time” value [7] was no more than 1 min and the “dose proportionality of Cmax, AUC(0,∞) and AUC(0,t)” value (0.5–50 mg) was “increased approximately proportionally to dose”. For the same molecule, the “Inter-subject variability, %CV for Cmax and AUC” value (across all doses, regardless of formulation) was “approximately 30%”, the “mean % change from baseline in maximum mPT” value ([8]; 2.5 mg dose) was 35.0% and the “mean % change from baseline in maximum mPT” value ([8]; 5 mg dose) was 42.9%. For the same molecule, the “mean % change from baseline in maximum mPT” value ([8]; 10 mg dose) was 87.1%, the “mean % change from baseline in maximum mPT” value ([8]; 25 mg dose) was 135.3% and the “mean % change from baseline in maximum mPT” value ([8]; 50 mg dose) was 187.1%. The “peak mPT increase from baseline” value ([8]; after a 50 mg dose) was 2.9 fold, the “elevated alanine transaminase level” value ([9]; one subject, discontinued, 10 mg) was 3 × upper limit of normal [ULN] and the “elevations in aspartate aminotransferase and gamma-glutamyl transferase levels” value ([9]; same one subject, 10 mg) was less than 2 × ULN. For the same molecule, the “bleeding-related AEs” value ([9]; single 10 mg doses) was “no bleeding-related AEs”, the “serious AEs or major bleeding-related events” value ([9]; single 10 mg doses, fed and fasted) was “no serious AEs or major bleeding-related events” and the “prevention of thromboembolic events vs enoxaparin 40 mg daily” value [10] was “superior to enoxaparin”. For the same molecule, the bioavailability [11] was roughly 50%, the antithrombotic effects [12] was “potent antithrombotic effects” and the “individual INR (highest)” value ([13]; 10 mg, fed and fasted) was no more than 2.0. For the same molecule, the “time for INR, aPTT and PT to return to baseline” value ([13]; 10 mg, fed and fasted) was no more than 24 h, the “INR Mean (SD) change from baseline” value ([13]; fasted, n = 23) was 0.23 (0.13) and the “INR Mean (SD) change from baseline” value ([13]; fed, n = 22) was 0.20 (0.12). The “mean % change from baseline in maximum INR” value ([14]; 10 mg dose) was 19.5%, the “mean % change from baseline in maximum INR” value ([14]; 25 mg dose) was 44.1% and the “mean maximum INR” value ([14]; 25 mg dose) was 1.45. For the same molecule, the “mean % change from baseline in maximum INR” value ([14]; 50 mg dose) was 55.8%, the “mean maximum INR” value ([14]; 50 mg dose) was 1.71 and the “peak INR increase from baseline” value ([14]; after a 50 mg dose) was 1.6 fold. The “time until changes in pharmacodynamic parameters were evident” value ([14]; following a single dose, clotting assay parameters (INR, aPTT and mPT)) was “less than 1 h”, the “mean % change from baseline in maximum aPTT” value ([15]; 25 mg dose) was 25.7% and the “mean maximum aPTT” value ([15]; 25 mg dose, baseline 30.4 s) was 38.2 s. For the same molecule, the “mean % change from baseline in maximum aPTT” value ([15]; 50 mg dose) was 23.1%, the “mean maximum aPTT” value ([15]; 50 mg dose, baseline 28.6 s) was 35.1 s and the “peak aPTT increase from baseline” value ([15]; after a 50 mg dose) was 1.2 fold. For the same molecule, the “subjects with bleeding-related AEs” value ([16]; haematochezia at 25 mg (one), haematuria at 50 mg (two), all mild) was “Three subjects had bleeding-related AEs”, the “serious AEs or major bleeding-related events” value ([16]; single oral doses 0.5–50 mg) was “no serious AEs or major bleeding-related events” and the “dose-limiting AEs” value ([16]; single oral doses of up to 50 mg) was “No dose-limiting AEs were observed”. For the same molecule, the half-life ([17]; 10 mg, half-life, single doses, overall conclusion) was roughly 12 h, the half-life ([17]; t1/2, range, doses that provided sufficient data to characterize the terminal elimination phase (i.e. 5–50 mg)) was 7 to 27 h and the AUC(0-inf) ([17]; 0.5 mg) was 61.9 ng·h/mL. It also gave an AUC(0-t) ([17]; 0.5 mg) of 52.7 ng·h/mL, a Cmax ([17]; 0.5 mg) of 9.1 ng/mL and an AUC(0-inf) ([17]; 1 mg) of 174 ng·h/mL. The AUC(0-t) ([17]; 1 mg) was 163 ng·h/mL, the Cmax ([17]; 1 mg) was 23.5 ng/mL and the AUC(0-inf) ([17]; 2.5 mg) was 438 ng·h/mL. The AUC(0-t) ([17]; 2.5 mg) was 421 ng·h/mL, the Cmax ([17]; 2.5 mg) was 52.5 ng/mL and the AUC(0-inf) ([17]; 5 mg) was 1020 ng·h/mL. It also gave an AUC(0-t) ([17]; 5 mg) of 977 ng·h/mL, a Cmax ([17]; 5 mg) of 105 ng/mL and an AUC(0-inf) ([17]; 10 mg) of 1300 ng·h/mL. It also gave an AUC(0-t) ([17]; 10 mg) of 1270 ng·h/mL, a Cmax ([17]; 10 mg) of 176 ng/mL and an AUC(0-inf) ([17]; 25 mg) of 4010 ng·h/mL. The AUC(0-t) ([17]; 25 mg) was 3870 ng·h/mL, the Cmax ([17]; 25 mg) was 365 ng/mL and the AUC(0-inf) ([17]; 50 mg) was 7560 ng·h/mL. It also gave an AUC(0-t) ([17]; 50 mg) of 7100 ng·h/mL, a Cmax ([17]; 50 mg) of 685 ng/mL and a Tmax ([17]; oral solution (0.5–2.5 mg)) of 1.5 to 1.8 h. The Tmax ([17]; oral tablet (5–50 mg)) was 2.5 to 3.3 h.
